Test results from ChEMBL document CHEMBL5108043, “Novel benzimidazole-based pseudo-irreversible butyrylcholinesterase inhibitors with neuroprotective activity in an Alzheimer's disease mouse model” (RSC Med Chem, 2022).
≈ marks a conversion by molar mass, not a printed value. Calls of active or inactive are those of the source. The calls are words filed in the database; no cut-off is given here.

Legend:
Cholinesterase [1] = molecular target: T1, Cholinesterase (Homo sapiens, UniProt P06276)
Description: Inhibition of human BChE using butyrylthiocholineiodide as substrate preincubated for 20 mins followed by substrate addition and measured every 30 sec for 3 mins by DTNB-based UV analysis

physchem = conditions: PBS buffer
Description: (§1) Solubility of the compound in PBS buffer incubated overnight at room temperature by HPLC based continuous shake-flask method

Acetylcholinesterase [2] = molecular target: T2, Acetylcholinesterase (Homo sapiens, UniProt P22303)
T2 sequence (P22303 whole entry): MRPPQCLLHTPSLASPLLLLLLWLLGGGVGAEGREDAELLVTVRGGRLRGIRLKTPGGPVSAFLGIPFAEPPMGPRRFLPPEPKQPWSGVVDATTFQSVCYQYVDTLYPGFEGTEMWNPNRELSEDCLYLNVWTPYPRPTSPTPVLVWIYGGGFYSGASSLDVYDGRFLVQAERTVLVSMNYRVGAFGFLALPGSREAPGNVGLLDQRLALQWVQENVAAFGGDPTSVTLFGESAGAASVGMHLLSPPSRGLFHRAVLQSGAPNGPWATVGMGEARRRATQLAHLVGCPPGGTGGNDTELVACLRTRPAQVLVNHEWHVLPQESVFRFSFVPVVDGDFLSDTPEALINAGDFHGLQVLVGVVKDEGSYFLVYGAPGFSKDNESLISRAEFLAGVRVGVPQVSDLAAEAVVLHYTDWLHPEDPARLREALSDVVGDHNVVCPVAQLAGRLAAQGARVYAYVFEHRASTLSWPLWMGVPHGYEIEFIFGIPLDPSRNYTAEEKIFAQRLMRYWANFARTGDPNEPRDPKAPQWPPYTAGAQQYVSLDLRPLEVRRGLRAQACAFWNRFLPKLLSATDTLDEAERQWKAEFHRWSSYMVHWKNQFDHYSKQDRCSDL
Description: Inhibition of human AChE using acetylthiocholine iodide as substrate preincubated for 20 mins followed by substrate addition and measured every 30 sec for 3 mins by DTNB-based UV analysis

Cannabinoid receptor 2 [3] = molecular target: T3, Cannabinoid receptor 2 (Homo sapiens, UniProt P34972); assay: Binding affinity to human CB2 receptor expressed in HEK cells at 10 uM relative to control; format: cell-based
T3 sequence (P34972 whole entry): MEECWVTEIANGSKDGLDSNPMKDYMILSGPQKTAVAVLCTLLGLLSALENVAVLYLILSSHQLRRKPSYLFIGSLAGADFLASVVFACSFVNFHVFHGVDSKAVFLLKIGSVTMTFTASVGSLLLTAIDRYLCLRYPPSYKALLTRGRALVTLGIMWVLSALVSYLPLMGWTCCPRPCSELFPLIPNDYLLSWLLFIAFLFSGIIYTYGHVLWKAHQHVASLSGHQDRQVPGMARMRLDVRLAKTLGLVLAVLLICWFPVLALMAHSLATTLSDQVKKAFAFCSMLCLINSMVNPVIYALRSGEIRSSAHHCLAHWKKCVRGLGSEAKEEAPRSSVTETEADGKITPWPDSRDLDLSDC

[4] = buffer
Description: as §1

Cannabinoid receptor 2 [5] = molecular target: T3, Cannabinoid receptor 2; assay: Displacement of [3H]CP55940 from human CB2 receptor expressed in HEK cells incubated for 3 hrs by competitive assay; format: cell-based
Cholinesterase [6] = molecular target: T1, Cholinesterase; assay: Pseudo-irreversible inhibition of human BChE using butyrylthiocholineiodide as substrate assessed as rate constant k3 preincubated for 20 mins followed by substrate addition and measured every 30 sec for 3 mins by DTNB-based UV analysis; conditions: time 23.0 min
Cholinesterase [7] = molecular target: T1, Cholinesterase; conditions: time 1.0 hrs
[8] = Neurotoxicity against mouse HT-22 cells assessed as cell viability at 0.75 to 25 uM by MTT assay; format: toxicity, cell-based; conditions: ht-22, 25 µM, dose 0.75-25 µM
Cholinesterase [9] = molecular target: T1, Cholinesterase; assay: Pseudo-irreversible inhibition of human BChE assessed as decarbamylation of enzyme by measuring rate constant k4 incubated for 1 hrs
Mus musculus [10] = assay: Anti-alzheimer activity against amyloid beta 25-35 induced learning impairments in Swiss mouse assessed as attenuation of spatial working memory at 0.03 mg/kg, ip administered for 7 days and measured on day 8 by Y-maze test; format: functional, organism-based; conditions: time 8.0 day
Cholinesterase [11] = molecular target: T1, Cholinesterase; assay: Pseudo-irreversible inhibition of human BChE using butyrylthiocholineiodide as substrate assessed as equilibrium constant Kc preincubated for 20 mins followed by substrate addition and measured every 30 sec for 3 mins by DTNB-based UV analysis; conditions: time 23.0 min
Mus musculus [12] = assay: Anti-alzheimer activity against amyloid beta 25-35 induced learning impairments in Swiss mouse assessed as attenuation of long-term memory at 0.03 mg/kg, ip administered for 7 days and measured on day 10 by passive avoidance test; format: functional, organism-based; conditions: time 10.0 day
Acetylcholinesterase [13] = molecular target: T2, Acetylcholinesterase; assay: Inhibition of human AChE using acetylthiocholine iodide as substrate at 10 uM preincubated for 20 mins followed by substrate addition and measured every 30 sec for 3 mins by DTNB-based UV analysis relative to control; conditions: time 23.0 min
[14] = Neurotoxicity against mouse HT-22 cells assessed as cell viability at 1 to 25 uM by MTT assay; format: toxicity, cell-based; conditions: ht-22, 25 µM, dose 1-25 µM

T1 sequence (P06276 whole entry): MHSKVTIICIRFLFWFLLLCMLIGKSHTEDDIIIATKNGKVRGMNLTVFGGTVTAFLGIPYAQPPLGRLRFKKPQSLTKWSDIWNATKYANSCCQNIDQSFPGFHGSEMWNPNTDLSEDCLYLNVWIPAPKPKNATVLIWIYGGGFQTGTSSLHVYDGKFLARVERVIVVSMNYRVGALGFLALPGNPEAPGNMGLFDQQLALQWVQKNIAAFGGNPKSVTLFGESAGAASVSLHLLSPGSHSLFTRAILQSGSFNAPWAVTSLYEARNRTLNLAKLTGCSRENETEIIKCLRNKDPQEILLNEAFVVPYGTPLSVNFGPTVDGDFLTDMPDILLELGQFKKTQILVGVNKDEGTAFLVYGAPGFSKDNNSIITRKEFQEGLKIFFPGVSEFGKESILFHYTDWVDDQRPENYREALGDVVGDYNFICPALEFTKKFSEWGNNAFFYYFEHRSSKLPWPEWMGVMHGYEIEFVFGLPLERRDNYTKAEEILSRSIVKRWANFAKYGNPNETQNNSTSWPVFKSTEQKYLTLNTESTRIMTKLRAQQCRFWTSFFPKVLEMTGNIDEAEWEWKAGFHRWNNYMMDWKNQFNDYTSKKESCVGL

Structure (SMILES)	IC50 (Cholinesterase [1])	solubility thermodynamic (physchem)	IC50 (Acetylcholinesterase [2])	inhibition (Acetylcholinesterase [13])	further results
CCCCCCCNC(=O)Oc1ccc(Cc2nc3cc(C(=O)N4CCCCC4)ccc3n2CCC(C)C)cc1	30.6 nM	< 1 µg/mL	58 nM		
CCCCCCCNC(=O)Oc1ccc(Cc2nc3cc(C(=O)N(CC)CC)ccc3n2CCCCN2CCCCC2)cc1	2410 nM	67 µg/mL (≈ 111 µM)	2150 nM		
CCCCCCCNC(=O)Oc1ccc(Cc2nc3cc(C(=O)N(CC)CC)ccc3n2CCC(C)C)cc1	13.2 nM	< 1 µg/mL	175 nM		Activity (Cannabinoid receptor 2 [3]): 33%
CCN(CC)C(=O)c1ccc2c(c1)nc(Cc1ccc(OC(=O)NCCCCCCN3CCc4ccccc4C3)cc1)n2CCC(C)C	76.5 nM		9520 nM		solubility [4]: Insoluble
CCN(CC)C(=O)c1ccc2c(c1)nc(Cc1ccc(OC(=O)N3CCC3)cc1)n2CCC(C)C		7.2 µg/mL (≈ 15.1 µM)	631 nM		IC50 (Cannabinoid receptor 2 [5]): 5.01 µM; K (Cholinesterase [6]): 8.9 min⁻¹; T1/2 (Cholinesterase [7]): 56.3 min; Activity [8]: Non-Toxic; K (Cholinesterase [9]): 0.74 h⁻¹; Activity (Mus musculus [10]): Active; K (Cholinesterase [11]): 3 µM; Activity (Mus musculus [12]): Active
CCCCCCCNC(=O)Oc1ccc(Cc2nc3cc(C(=O)Nc4ccccc4)ccc3n2CCC(C)C)cc1	15.5 nM			49%	solubility [4]: Insoluble
CCCCCCCNC(=O)Oc1ccc2c(c1)CN1CCc3ccccc3C1N2C (stereo unspecified)		< 1 µg/mL		39%	
CCN(CC)C(=O)c1ccc2c(c1)nc(Cc1ccc(OC(=O)N3CCCC3)cc1)n2CCC(C)C	139 nM	3.9 µg/mL (≈ 7.95 µM)		16%	Activity (Cannabinoid receptor 2 [3]): < 10%
CCN(CC)C(=O)c1ccc2c(c1)nc(Cc1ccc(O)cc1)n2CCC(C)C					Activity [14]: Non-Toxic
CCCCCCCNC(=O)Oc1ccc(Cc2nc3cc(C(=O)NCCC(C)C)ccc3n2CCC(C)C)cc1	3.7 nM	< 1 µg/mL		55%	
